Results: US20100216703A1, “Inhibitors of PDE4 and Methods of Use” (THE REGENTS OF THE UNIVERSITY OF CALIFORNIA, priority 2006, published 2010)
“Also recorded” adds a separate entry of the source.

Assays:
NIH3T3p75NTR cells [1] = assay: Competitive binding cAMP ELISA; assay type: cell-based; conditions: for intracellular cAMP levels in NIH3T3p75NTR cells: 16 h, PTX 100 ng/ml, IBMX 500 μM, PDE1 inh. 18.7 μM, EHNA 80 μM, trequinsin 100 nM, rolipram 10 μM, PDE5 inh. 23 μM
Procedure: […] fibroblasts or 500,000 SCs were lysed in 0.1 N HCl solution and cAMP was measured using a competitive binding cAMP ELISA (Assay Designs). Cells were treated with 100 ng/ml PTX for 16 h. […] Cells were treated with forskolin in the presence of the inhibitors for 1 h. […] For the qualitative and quantitative PKA assay (Promega), cells were treated with 10 μM forskolin for 30 min, lysed in 1% NP-40 buffer with 150 mM NaCl, 50 mM Tris, and 1 mM EGTA, and protein concentration was determined using the Bradford Assay (Bio-Rad Laboratories). 1 μg was loaded into the PKA assay reaction mix according to the manufacturer's protocol (Promega).

NIH3T3 cells [2] = assay: Quantification of tPA activity; assay type: cell-based; conditions: 10 μM forskolin 16 h; 200 nM KT5720; IBMX
Procedure: (§1) Quantification of tPA and uPA activity in SC and fibroblast in lysates and supernatants was performed according to the directions of the activity assay kits from American Diagnostica and Chemicon, respectively. To elevate cAMP cells were treated either with 2 mM db-cAMP (Sigma-Aldrich) or with 10 μM forskolin (Sigma-Aldrich) for 16 h. To block PKA activity, cells were treated with 200 nM KT5720 (Calbiochem).

NIH3T3p75NTR cells [3] = assay: Quantification of tPA activity; assay type: cell-based; conditions: 10 μM forskolin 16 h; 200 nM KT5720; IBMX; rolipram
Procedure: as §1

NIH3T3 cells [4] = assay: RT-PCR / real-time PCR of tPA and PAI-1 RNA; assay type: cell-based
Procedure: RT-PCR was performed as described previously (Akassoglou et al., 2002). Primers for tPA, uPA, and PAI-1 genes were used as described previously (Yamamoto and Loskutoff, 1996). Real-time PCR was performed using the Opticon DNA Engine 2 (MJ Research) and the Quantitect SYBR Green PCR kit (QIAGEN). Results were analyzed with Opticon 2 software using the comparative Ct method as described previously (Livak and Schmittgen, 2001). Data were expressed as ΔΔCt for the tPA gene normalized against GAPDH.

NIH3T3p75NTR cells [5] = assay: Fibrin degradation assay on 3D fibrin gel; assay type: cell-based; conditions: 2 mM db-cAMP
Procedure: as §1
(§2) Coating with fibrin was prepared as described previously (Lansink et al., 1998). To quantitate fibrin degradation, the supernatant was aspirated and the remaining gel was weighed using an analytical balance. Decrease of gel weight corresponded to increased fibrin gel degradation.

wt and p75NTR−/− SCs = assay: Quantification of tPA activity in primary Schwann cells; assay type: cell-based, mouse; conditions: 10 μM forskolin, 100 ng/ml NGF, 50 ng/ml BDNF, 16 h
Procedure: as §1
Murine SCs were isolated as described previously (Syroid et al., 2000). NIH3T3 or HEK293 cells were cotransfected either with p75NTR FL, ICD or deletion constructs, and PDE4A5 cDNAs using Lipofectamine 2000 (Invitrogen) as described in the Results section. CGNs were isolated from P10 animals (Yamashita and Tohyama, 2003). CGNs were lysed immediately for co-IP, without plating. siRNA directed against p75NTR (Dharmacon; SMART Pool reagent, Cat. M-080041-00; Cat. M-009340) was transfected into SCs and NIH3T3p75NTR cells using Dharmafect (Dharmacon).

tPA = target: T1, tPA (Mus musculus, UniProt P11214); assay: In situ zymography of crushed sciatic nerve; assay type: biochemical; conditions: injured sciatic nerve of p75NTR−/− mice, in the presence of plasminogen
T1 construct: from tissue; host or cells: crushed sciatic nerve of p75NTR-/- mice (C57Bl/6 background)
T1 sequence (P11214 33-559): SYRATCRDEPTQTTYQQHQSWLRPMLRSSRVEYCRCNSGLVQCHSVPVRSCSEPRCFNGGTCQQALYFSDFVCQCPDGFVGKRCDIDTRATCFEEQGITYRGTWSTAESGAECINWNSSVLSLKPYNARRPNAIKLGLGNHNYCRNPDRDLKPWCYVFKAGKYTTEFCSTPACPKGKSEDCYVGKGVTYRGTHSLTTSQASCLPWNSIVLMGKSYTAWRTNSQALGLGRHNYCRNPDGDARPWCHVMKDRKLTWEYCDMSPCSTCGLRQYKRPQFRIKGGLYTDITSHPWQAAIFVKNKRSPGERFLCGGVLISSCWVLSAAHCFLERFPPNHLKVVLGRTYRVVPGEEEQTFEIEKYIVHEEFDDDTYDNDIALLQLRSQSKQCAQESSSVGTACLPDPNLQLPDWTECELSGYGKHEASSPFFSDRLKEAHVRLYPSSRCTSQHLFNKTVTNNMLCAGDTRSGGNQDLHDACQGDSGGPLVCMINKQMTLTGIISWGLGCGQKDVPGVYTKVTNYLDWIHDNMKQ
Procedure: In situ zymographies were performed as described previously (Akassoglou et al., 2000). Quantification of in situ zymographies was performed by measuring the area of the lytic zone surrounding each nerve, and dividing that value by the area of the nerve. Images were collected after 8 h of incubation for the sciatic nerve and 4 h of incubation for the lung. For cell zymographies, cultures were washed four times with PBS/BSA and overlaid with 200 μl of Dulbecco's […] medium containing 1% LMP agarose, 2.5% boiled nonfat milk, and 25 μg/ml human plasminogen. The overlay was allowed to harden, and plates were incubated in a cell culture incubator at 37° C. Pictures of lytic zones were taken using an inverted microscope under dark field (Carl Zeiss Microlmaging, Inc.).

NIH3T3 cells [6] = assay: Fibrin degradation assay on 3D fibrin gel; assay type: cell-based
Procedure: as §2

[7] = target: p75 neurotrophin receptor (p75NTR), stably expressed in NIH3T3p75NTR cells

Q: For COc1ccc2ncnc(NCc3ccc4c(c3)OCO4)c2c1 [4-{[3′,4′-(Methylenedioxy)benzyl]amino}-6-methoxyquinazoline], which “intracellular cAMP levels in NIH3T3p75NTR cells” value (NIH3T3p75NTR cells [1]) is on record?
A: only IBMX (P<0.0001) and rolipram (P<0.0001) increase

Q: With CCCCCCOC(=O)[C@]1(O)C[C@@H]2O[C@@]1(C)n1c3ccccc3c3c4c(c5c6ccccc6n2c5c31)C(=O)NC4 [KT5720] as the molecule, how does the “tPA activity in NIH3T3 cells” value (NIH3T3 cells [2]) read?
A: decrease of tPA activity; also recorded: decreases tPA activity

Q: What about the “tPA activity in NIH3T3p75NTR cells” value (NIH3T3p75NTR cells [3]) of the same molecule?
A: decrease of tPA activity

Q: And the “tPA mRNA in NIH3T3 cells” value (NIH3T3 cells [4])?
A: decreases tPA transcript; also recorded: decreases tPA RNA

Q: For CCCCCC[C@@H]([C@@H](C)O)n1cnc2c(N)ncnc21 (racemic) [EHNA, erythro-9-(2-Hydroxy-3-nonyl)adenine], which “intracellular cAMP levels in NIH3T3p75NTR cells” value (NIH3T3p75NTR cells [1]) is on record?
A: only IBMX (P<0.0001) and rolipram (P<0.0001) increase

Q: With CCCC(=O)Nc1ncnc2c1ncn2[C@@H]1O[C@@H]2COP(=O)(O)O[C@H]2[C@H]1OC(=O)CCC [db-cAMP, dibutyryl-cAMP] as the molecule, how does the “fibrinolysis in NIH3T3p75NTR cells” value (NIH3T3p75NTR cells [5]) read?
A: induces fibrinolysis; also recorded: overcomes the inhibitory effect of p75NTR

Q: pertussis toxin [PTX] was tested. Which “intracellular cAMP levels in NIH3T3p75NTR cells” value (NIH3T3p75NTR cells [1]) did it give?
A: does not rescue the p75NTR-mediated down-regulation of cAMP; also recorded: only IBMX (P<0.0001) and rolipram (P<0.0001) increase

Q: For COCc1nc2c([nH]1)c(=O)n(C)c(=O)n2CC(C)C [8-Methoxymethyl-IBMX, 8-methoxymethyl-3-isobutyl-1-methylxanthine], which “intracellular cAMP levels in NIH3T3p75NTR cells” value (NIH3T3p75NTR cells [1]) is on record?
A: only IBMX (P<0.0001) and rolipram (P<0.0001) increase

Q: With NGF: nerve growth factor as the molecule, how does the “tPA activity in SCs” value (wt and p75NTR−/− SCs) read?
A: do not affect activity of tPA; also recorded: has no effect on tPA

Q: And the “intracellular cAMP levels in NIH3T3p75NTR cells, neurotrophins or their inhibition” value (NIH3T3p75NTR cells [1]; 100 ng/ml NGF, 50 ng/ml BDNF, 750 ng/ml FcTrkB, 1.35 ug/ml Fcp75NTR, 1 h)?
A: does not affect the p75NTR-mediated suppression of cAMP

Q: COc1cc2c(cc1OC)-c1c/c(=N\c3c(C)cc(C)cc3C)n(C)c(=O)n1CC2 [trequinsin] was tested. Which “intracellular cAMP levels in NIH3T3p75NTR cells” value (NIH3T3p75NTR cells [1]) did it give?
A: only IBMX (P<0.0001) and rolipram (P<0.0001) increase

Q: With Cl.Cl.N=C(N)c1ccc(C=C2CCCCC(=Cc3ccc(C(=N)N)cc3)C2=O)cc1 [tPASTOP] as the molecule, how does the “proteolytic activity (in situ zymography)” value (tPA) read?
A: blocks proteolytic activity

Q: Which “fibrin degradation by NIH3T3 cells” value (NIH3T3 cells [6]) does the source give for Aprotinin here?
A: completely inhibits fibrin degradation

B1: endogenous PDE4A5 (PDE4A, 109 kD) of NIH3T3p75NTR cells (protein)
chain: MEPPAAPSERSLSLSLPGPREGQATLKPPPQHLWRQPRTPIRIQQRGYSDSAERSEPERSPHRPIERADAVDTGDRPGLRTTRMSWPSSFHGTGTGGGSSRRLEAENGPTPSPGRSPLDSQASPGLMLHAGAATSQRRESFLYRSDSDYDMSPKTMSRNSSVASEAHGEDLIVTPFAQVLASLRNVRSNFSLLTNVPIPSNKRSPLGGPPSVCKATLSEETCQQLARETLEELDWCLEQLETMQTYRSVSEMASHKFKRMLNRELTHLSEMSRSGNQVSEYISNTFLDKQHEVEIPSPTPRQRPFQQPPPAAVQQAQPMSQITGLKKLVHTGSLNINVPRFGVKTDQEDLLAQELENLSKWGLNIFCVSEYAGGRSLSCIMYTIFQERDLLKKFHIPVDTMMTYMLTLEDHYHADVAYHNSLHAADVLQSTHVLLATPALDAVFTDLEILAALFAAAIHDVDHPGVSNQFLINTNSELALMYNDESVLENHHLAVGFKLLQEENCDIFQNLSKRQRQSLRKMVIDMVLATDMSKHMTLLADLKTMVETKKVTSSGVLLLDNYSDRIQVLRNMVHCADLSNPTKPLELYRQWTDRIMAEFFQQGDRERERGMEISPMCDKHTASVEKSQVGFIDYIVHPLWETWADLVHPDAQDILDTLEDNRDWYHSAIRQSPSPTLEEEPGVLSDPALPDKFQFELTLEEEDEEDSLEVPGLPCTEETLLAPHDTRAQAMEQSKVKGQSPAVVEVAESLKQETASAHGAPEESAEAVGHSFSLETSILPDLRTLSPSEEAQGLLGLPSMAAEVEAPRDHLAAMRACSACSGTSGDNSAVISAPGRWGSGGDPA
Q: Which “FRET emission ratio change of pm-AKAR2.2 in response to forskolin (membrane-associated PKA activity)” value [7] does the source give for B1 here?
A: NIH3T3p75NTR cells show an attenuated response, revealing reduced PKA activity at the plasma membrane

B2: BDNF: Brainderived neurotrophic factor (protein, UniProt P23560 19-247, looked up)
Neurotrophic factor BDNF …: APMKEANIRGQGGLAYPGVRTHGTLESVNGPKAGSRGLTSLADTFEHVIEELLDEDQKVRPNEENNKDADLYTSRVMLSSQVPLEPPLLFLLEEYKNYLDAANMSMRVRRHSDPARRGELSVCDSISEWVTAADKKTAVDMSGGTVTVLEKVPVSKGQLKQYFYETKCNPMGYTKEGCRGIDKRHWNSQCRTTQSYVRALTMDSKKRIGWRFIRIDTSCVCTLTIKRGR
Q: B2 was tested. Which “tPA activity in SCs” value (wt and p75NTR−/− SCs) did it give?
A: do not affect activity of tPA; also recorded: has no effect on tPA
